# Source: patent US20170008928A1, “NOVEL PEPTIDES AND PEPTIDE DERIVATIVES AND USES THEREOF” (Novo Nordisk A/S, priority 2015, published 2017)
# Like-named read-outs stand apart in the source and are kept apart here. Starred links: 1 amine or outer side, 2 acyl side, 3 side chain; linkers in the order of their positions; H or OH if unused. Non-standard residues stand in square brackets, D forms with d. Residues, ends and D or L forms follow the SMILES beside them. *: point of attachment. C20 diacid = O=C(O)CCCCCCCCCCCCCCCCCCC(=O)*; sY = N[C@@H](Cc1ccc(OS(=O)(=O)O)cc1)C(=O)O; C18 diacid = O=C(O)CCCCCCCCCCCCCCCCC(=O)*; γGlu = O=C(O)[C@H](CCC(=O)[*:2])N[*:1]; NMeF = CN[C@@H](Cc1ccccc1)C(=O)O; dNMeD = CN[C@H](CC(=O)O)C(=O)O; Nle = CCCC[C@H](N)C(=O)O; AEEA = NCCOCCOCC(=O)O
# Assays:
# [1] = biological target: T1, human cholecystokinin-2 receptor (CCK-2R) (Homo sapiens, UniProt P32239); assay: In vitro receptor binding to CCK-2R, SPA displacement of [125I]-CCK-8s from plasma membranes
# T1 construct: host or cells: 1321-N1 cells (plasma membranes prepared by Evotec AG Hamburg)
# T1 sequence (P32239 1-447): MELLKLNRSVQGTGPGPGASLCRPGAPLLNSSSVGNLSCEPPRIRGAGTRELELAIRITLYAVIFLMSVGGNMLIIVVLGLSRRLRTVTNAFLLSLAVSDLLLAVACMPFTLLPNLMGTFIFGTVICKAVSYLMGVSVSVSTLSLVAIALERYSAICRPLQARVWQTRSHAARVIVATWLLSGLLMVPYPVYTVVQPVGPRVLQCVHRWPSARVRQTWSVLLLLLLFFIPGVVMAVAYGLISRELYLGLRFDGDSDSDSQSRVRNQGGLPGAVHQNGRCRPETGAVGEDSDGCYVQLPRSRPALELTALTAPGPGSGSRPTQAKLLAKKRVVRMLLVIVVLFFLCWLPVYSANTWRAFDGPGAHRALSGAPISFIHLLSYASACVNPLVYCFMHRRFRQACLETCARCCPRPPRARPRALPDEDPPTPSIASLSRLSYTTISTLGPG
# Experimental: The in vitro binding affinity is a measure of the strength of attraction between a receptor and its ligand.
# Displacement of radio ligand was measured as reduction in light emission from SPA beads.
# The cells used in these assays were 1321-N1 cells stably expressing the CCK-1R or the CCK-2R (Perkin Elmer product numbers ES-530-A and ES-531-A, respectively see www.perkinelmer.com/Catalog/Product/ID/ES-530-A or -ES-531-A, respectively).
# The cells were cultured in an incubator (95% RH (relative humidity), 5% (of standard atmospheric pressure) CO2, 37° C.) in cell culture medium (DMEM (Lonza catalogue BE-12-604F/U1), with 10% (v/v) Foetal Calf Serum (FCS, Gibco catalogue 16140-071), 1% (w/w) Sodium pyruvate (Gibco catalogue 11360-039), 500 μg/ml Geneticin® (G418) (Gibco catalogue 10131-027), 25 μg/ml Zeocin™ (Invitrogen catalogue R250-05), 1% (w/w) Pen/Strep (Gibco catalogue 15140-122)).
# Plasma membranes were prepared by Evotec AG Hamburg by use of the ParrBomb (#4635, Parr Instrument Company). Cells were lysed with a lysis buffer (50 mM Tris, 2.5 mM EDTA, pH7) with added protease inhibitors (Complete Proteaseinhibitors EDTA-free (#05056489001, Roche), 1 tablet per 50 mL lysis buffer). The membrane fraction was separated by centrifugation. First, the cell lysate was centrifuged at 1000×g for 10 minutes at 4° C. The pellet was discarded and the supernatant was then centrifuged at 100.000×g for 30 minutes at 4° C. The supernatant was discarded and the pellet was re-suspended in 1 ml/5×10^8 cells ice cold membrane buffer (50 mM Tris, 320 mM Sucrose and Complete Proteaseinhibitors EDTA-free (#05056489001, Roche); pH7.4) and homogenised with dounce homogeniser. The protein concentration was determined using the Pierce™ BCA Protein Assay Kit according to kit manual, and the membrane preparation was adjust to the desired protein concentration with membrane buffer and aliquoted into pre-cooled tubes, snap-frozen in liquid nitrogen, and stored at −80° C.
# CCK receptor binding assays were performed in 96-well Optiplates (Cat #6005290, PerkinElmer, Waltham, Mass., USA) in a total volume of 200 μl per well. CCK derivatives in 80% DMSO stock solutions of 800 μM were serially diluted […] in assay buffer (50 mM Tris/HCl, 4.5 mM MgCl2, […], 0.02% Tween 20, 0.25% ovalbumin, 0.1% pluronic F-68, pH 7.4) to final assay concentrations ranging from 10^−5 M (ten μM) to 10^−12 M (one pM).
# Fifty μl of reference or test compounds were added to the Optiplates (using technical duplicates, i.e. two wells of each sample, one data point being the average of two wells), followed by addition of 150 μl of the mixture of SPA bead, radio ligand, and plasma membrane. The plates were sealed and incubated in the dark at +22° C. for 2 hours on a IKA MTS plate shaker (IKA-Werke D-79219 Staufen) set at 300 rpm and thereafter centrifuged at 1500 rpm for 10 minutes in a Heraeus Multifuge 3s centrifuge. SPA bead light emission was measured in a TopCount NXT (PerkinElmer) for 2 min/well after a delay of 60 min.
# As a measure of compound affinity, calculations were performed in order to determine the half maximal inhibitory concentration (the IC50 value).
# The data from the TopCounter were given as counts per minute (CPM). The CPM was plotted as a function of the concentration of compound. Dose-response curves were obtained, and IC50 values were calculated, by a nonlinear three-parameter logistic equation (log(agonist) vs response) with hillslope=−1, and shared top and bottom using the software programme GraphPad Prism v 6.0 (Graph Pad software, La Jolla, Calif., USA). The highest dose tested was 10^−5 M (1×10^7 pM).
# The preference of a specific compound for the CCK-1 receptor, or the CCK-1R selectivity, may be defined as IC50 (CCK-2R)/IC50 (CCK-1R).
# A minimum of three biological replicates was measured for each test compound on separate assay plates.
# [2] = biological target: T1, human cholecystokinin-2 receptor (CCK-2R); assay: In vitro potency on CCK-2R, whole cell functional assay (IP1 accumulation, IP-One HTRF); format: cell-based
# [3] = displacement of [125I]-CCK-8s, plasma membranes of 1321-N1 cells expressing CCK-2R, highest dose tested 1×10^7 pM, read-out: IC50 (CCK-2R)
# [4] = 1321-N1 cells stably expressing CCK-2R, IP1 accumulation, highest dose tested 1×10^6 pM, read-out: EC50 (CCK-2R)
Structure (SMILES),"IC50 [1, 3] [µM]","EC50 [2, 4] [µM]",IC50 [1] [µM],EC50 [2] [µM]
"CC(C)C[C@H](NC(=O)[C@H](Cc1ccc(OS(=O)(=O)O)cc1)NC(=O)[C@@H](N)CCC(=O)O)C(=O)NCC(=O)N[C@@H](Cc1c[nH]c2ccccc12)C(=O)N[C@@H](CCC(N)=O)C(=O)N(C)[C@H](CC(=O)O)C(=O)N[C@@H](Cc1ccccc1)C(N)=O [Example 85, Glu-sTyr-Leu-Gly-Trp-Gln-DMeAsp-Phe-amide]",> 10,> 1,–,–
"CCCC[C@H](NC(=O)[C@H](Cc1c[nH]c2ccccc12)NC(=O)CNC(=O)[C@@H](NC(=O)[C@H](Cc1ccc(OS(=O)(=O)O)cc1)NC(=O)[C@@H](N)CC(=O)O)[C@@H](C)CC)C(=O)N(C)[C@H](CC(=O)O)C(=O)N(C)[C@@H](Cc1ccccc1)C(N)=O [Example 81, Asp-sTyr-Ile-Gly-Trp-Nle-DMeAsp-MePhe-amide] (H-D[sY]IGW[Nle][dNMeD][NMeF]-NH2)",> 10,> 1,–,–
"CCCC[C@H](NC(=O)[C@H](Cc1c[nH]c2ccccc12)NC(=O)CNC(=O)[C@H](CC(C)C)NC(=O)[C@H](Cc1ccc(OS(=O)(=O)O)cc1)NC(=O)[C@H](N)CCC(=O)O)C(=O)N(C)[C@H](CC(=O)O)C(=O)N(C)[C@@H](Cc1ccccc1)C(N)=O [Example 87, DGlu-sTyr-Leu-Gly-Trp-Nle-DMeAsp-MePhe-amide] (H-[dE][sY]LGW[Nle][dNMeD][NMeF]-NH2)",> 10,> 1,–,–
"CC(C)C[C@H](NC(=O)[C@H](Cc1ccc(OS(=O)(=O)O)cc1)NC(=O)[C@@H](N)CC(=O)O)C(=O)NCC(=O)N[C@@H](Cc1c[nH]c2ccccc12)C(=O)N1CCC[C@H]1C(=O)N(C)[C@H](CC(=O)O)C(=O)N(C)[C@@H](Cc1ccccc1)C(N)=O [Example 66, Asp-sTyr-Leu-Gly-Trp-Pro-DMeAsp-MePhe-amide] (H-D[sY]LGWP[dNMeD][NMeF]-NH2)",–,–,> 10,> 1
"CCCC[C@H](NC(=O)[C@H](Cc1c[nH]c2ccccc12)NC(=O)CNC(=O)[C@H](CCCCN)NC(=O)[C@H](Cc1ccc(OS(=O)(=O)O)cc1)NC(=O)[C@H](CC(=O)O)NC(=O)COCCOCCNC(=O)COCCOCCNC(=O)CC[C@H](NC(=O)CCCCCCCCCCCCCCCCC(=O)O)C(=O)O)C(=O)N(C)[C@H](CC(=O)O)C(=O)N(C)[C@@H](Cc1ccccc1)C(N)=O [Example 16, 2-[2-[2-[[2-[2-[2-[[(4S)-4-Carboxy-4-(17-carboxyheptadecanoylamino)butanoyl]amino]ethoxy]ethoxy]acetyl]amino]ethoxy]ethoxy]acetyl-Asp-sTyr-Lys-Gly-Trp-Nle-DMeAsp-MePhe-amide] ({C18 diacid-γGlu-AEEA-AEEA}-D[sY]KGW[Nle][dNMeD][NMeF]-NH2)",–,–,> 10,–

# Second part, led by results:
"IC50 [1, 3] [µM]","EC50 [2, 4] [µM]",Structure (SMILES),IC50 [1] [µM],EC50 [2] [µM]
0.38,0.046,"CCCC[C@H](NC(=O)[C@H](Cc1c[nH]c2ccccc12)NC(=O)CNC(=O)[C@H](CC(C)C)NC(=O)[C@H](Cc1ccc(OS(=O)(=O)O)cc1)NC(=O)[C@H](CC(=O)O)NC(=O)CC[C@H](NC(=O)COCCOCCNC(=O)COCCOCCNC(=O)CC[C@H](NC(=O)CCCCCCCCCCCCCCCCC(=O)O)C(=O)O)C(=O)O)C(=O)N(C)[C@H](CC(=O)O)C(=O)N(C)[C@@H](Cc1ccccc1)C(N)=O [Example 32, (4S)-4-Carboxy-4-[[2-[2-[2-[[2-[2-[2-[[(4S)-4-carboxy-4-(17-carboxyheptadecanoylamino)butanoyl]amino]ethoxy]ethoxy]acetyl]amino]ethoxy]ethoxy]acetyl]amino]butanoyl-Asp-sTyr-Leu-Gly-Trp-Nle-DMeAsp-MePhe-amide]",–,–
> 10,> 1,"CCCC[C@H](NC(=O)[C@@H](N)Cc1ccc(OS(=O)(=O)O)cc1)C(=O)NCC(=O)N[C@@H](Cc1c[nH]c2ccccc12)C(=O)N[C@@H](CCCC)C(=O)N(C)[C@H](CC(=O)O)C(=O)N(C)[C@@H](Cc1ccccc1)C(N)=O [Example 72, sTyr-Nle-Gly-Trp-Nle-DMeAsp-MePhe-amide] (H-[sY][Nle]GW[Nle][dNMeD][NMeF]-NH2; N-terminus assumed)",–,–
> 10,> 1,"CC(C)C[C@H](NC(=O)[C@H](Cc1ccc(OS(=O)(=O)O)cc1)NC(=O)[C@@H](N)CCC(=O)O)C(=O)NCC(=O)N[C@@H](Cc1c[nH]c2ccccc12)C(=O)N[C@@H](CCC(N)=O)C(=O)N(C)[C@H](CC(=O)O)C(=O)N(C)[C@@H](Cc1ccccc1)C(N)=O [Example 86, Glu-sTyr-Leu-Gly-Trp-Gln-DMeAsp-MePhe-amide]",–,–
0.34,–,"CCCC[C@H](NC(=O)[C@H](Cc1c[nH]c2ccccc12)NC(=O)CNC(=O)[C@@H](NC(=O)[C@H](Cc1ccc(OS(=O)(=O)O)cc1)NC(=O)[C@H](CC(=O)O)NC(=O)COCCOCCNC(=O)COCCOCCNC(=O)CC[C@H](NC(=O)CCCCCCCCCCCCCCCCC(=O)O)C(=O)O)[C@@H](C)CC)C(=O)N(C)[C@H](CC(=O)O)C(=O)N(C)[C@@H](Cc1ccccc1)C(N)=O [Example 47, 2-[2-[2-[[2-[2-[2-[[(4S)-4-Carboxy-4-(17-carboxyheptadecanoylamino)butanoyl]amino]ethoxy]ethoxy]acetyl]amino]ethoxy]ethoxy]acetyl-Asp-sTyr-Ile-Gly-Trp-Nle-DMeAsp-MePhe-amide] ({C18 diacid-γGlu-AEEA-AEEA}-D[sY]IGW[Nle][dNMeD][NMeF]-NH2)",–,–
0.43,–,"CCCC[C@H](NC(=O)[C@H](Cc1c[nH]c2ccccc12)NC(=O)CNC(=O)[C@H](CC(C)C)NC(=O)[C@H](Cc1ccc(OS(=O)(=O)O)cc1)NC(=O)[C@H](CCC(=O)O)NC(=O)COCCOCCNC(=O)COCCOCCNC(=O)CC[C@H](NC(=O)CCCCCCCCCCCCCCCCCCC(=O)O)C(=O)O)C(=O)N(C)[C@H](CC(=O)O)C(=O)N(C)[C@@H](Cc1ccccc1)C(N)=O [Example 37, 2-[2-[2-[[2-[2-[2-[[(4S)-4-Carboxy-4-(19-carboxynonadecanoylamino)butanoyl]amino]ethoxy]ethoxy]acetyl]amino]ethoxy]ethoxy]acetyl-Glu-sTyr-Leu-Gly-Trp-Nle-DMeAsp-MePhe-amide] ({C20 diacid-γGlu-AEEA-AEEA}-E[sY]LGW[Nle][dNMeD][NMeF]-NH2)",–,–
